From US20080146555A1, “Uses of Kinase Inhibitors and Compositions Thereof” (GPC Biotech, Inc, priority 2004, published 2008) come the findings set out here.

One assay deals with 1A9. The assay can be described thus: SRB cytotoxicity, 1A9 parental cells. Type of assay: cell-based. Conditions: Homo sapiens, 72 h. The method, then:
(§1) In these experiments, the P-glycoprotein expressing NCI-Adr resistant subline (Vickers et al., 1989. Mol Endocrinology 3 (1):157-164) was used. […] Briefly, cells were plated in 96 well dishes 24 hours prior to compound addition. Where noted, they were exposed to verapamil for 4 hours prior to compound addition and then throughout the treatment period (72 hours). The assay was terminated with the addition of cold TCA to a final concentration of 10% and the plates were incubated for one hour at 4° C. The plates were then washed 5 times with water and 100 μl of a Sulforhodamine B solution (4%) was added to each well. The plate was then incubated for 10 minutes at room temperature before removal of unbound dye by washing with 1% acetic acid.
The tubulin mutated, paclitaxel-resistant human ovarian carcinoma cell line 1A9-PTX10 and its parental paclitaxel-sensitive cell line 1A9 were derived from the A2780 human ovarian carcinoma cell line (J Biol Chem (1997) 272, 17118-17124).

For the next assay, the target named is Cdk2 (Homo sapiens, UniProt P24941). The assay can be described thus: Cdk2 inhibition. It counts as biochemical. The source says: (§2) Further inhibition results for subject compounds of the invention against other CDKs and further kinases are shown in Table 5, Table II and described in Example 6.
(§3) Table 3, Table 4, Table 5 and Table II show the results obtained for inhibition of a broad range of such kinases for subject compounds of the invention.

The next assay concerns cells. The assay is described as follows: Apoptosis detection (TUNEL staining, PARP cleavage). Type of assay: cell-based. Conditions: 72 hours at 5× of the IC50 concentration. The method, then: In addition, PARP cleavage was also observed. Similarly, cells incubated with B16 are 90% TUNEL positive. Such assays can be used for apoptosis detection in any cells in contact with the subject compounds.

Another assay addresses Cdk6 (Homo sapiens, UniProt Q00534). The assay can be described thus: Cdk6 inhibition. Type of assay: biochemical.
From the text: as §2, §3

The target in the next assay is Cdk1 (Homo sapiens, UniProt P06493). The assay can be described thus: Cdk1 inhibition. Type of assay: biochemical.
Chain of Cdk1 (P06493 whole entry, species assumed): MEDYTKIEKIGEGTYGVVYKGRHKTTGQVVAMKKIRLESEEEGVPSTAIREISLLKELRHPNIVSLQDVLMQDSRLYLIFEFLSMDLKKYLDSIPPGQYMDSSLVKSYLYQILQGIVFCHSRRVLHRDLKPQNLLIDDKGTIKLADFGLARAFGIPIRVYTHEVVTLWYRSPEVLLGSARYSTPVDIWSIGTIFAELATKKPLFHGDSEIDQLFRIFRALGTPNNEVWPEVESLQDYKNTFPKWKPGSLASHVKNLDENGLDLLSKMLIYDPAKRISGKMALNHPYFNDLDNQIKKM
Chain of Cdk1 (P14635 whole entry partner, species assumed): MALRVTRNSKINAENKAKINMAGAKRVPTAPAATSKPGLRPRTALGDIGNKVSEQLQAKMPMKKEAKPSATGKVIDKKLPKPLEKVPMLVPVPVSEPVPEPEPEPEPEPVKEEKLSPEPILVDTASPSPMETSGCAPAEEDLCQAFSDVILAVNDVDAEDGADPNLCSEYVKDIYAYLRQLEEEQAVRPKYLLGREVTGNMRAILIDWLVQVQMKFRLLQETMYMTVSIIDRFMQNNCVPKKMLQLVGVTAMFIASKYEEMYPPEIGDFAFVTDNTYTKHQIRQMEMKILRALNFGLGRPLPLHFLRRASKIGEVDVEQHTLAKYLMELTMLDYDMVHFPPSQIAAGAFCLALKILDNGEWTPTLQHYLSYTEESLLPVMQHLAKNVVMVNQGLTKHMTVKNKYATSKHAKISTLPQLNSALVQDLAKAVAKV
From the text: as §2, §3

Another assay deals with A129. The assay can be described thus: SRB cytotoxicity, A129 parental cells. It counts as cell-based, human. Conditions: Homo sapiens, 72 h. The method, then:
as §1
The parental non-mutated cell line A129 was used as a control.

Another assay addresses T1, MEK1 (Homo sapiens, UniProt Q02750).
T1 construct: purchased Upstate 14-429
The assay can be described thus: MEK1 kinase assay. It counts as biochemical. The method, then: 1. Assay Dilution Buffer I (ADBI, Catalog #20-108): 20 mM MOPS, pH 7.2, 25 mM β-glycerol phosphate, 5 mM EGTA, 1 mM sodium orthovanadate, 1 mM dithiothreitol. • 2. Magnesium/ATP Cocktail (Catalog #20-113): 500 μM cold ATP and 75 mM magnesium chloride in ADBI. • 3. MEK1, active: Dilute to 0.5-5 ng/μl with ADBI containing 0.03% Brij-35 and 1 mg/ml BSA. Use 5 μl per assay point. • 4. MAP Kinase 2/Erk2, unactive (Catalog #14-198): Use 1 μg per assay point. • 5. MBP Substrate (Catalog #13-104): Prepare a 3.33 mg/ml stock solution with ADBI. Use 2.5 μl per assay for a final concentration of 0.33 mg/ml per assay point. • 6. Magnesium/ATP Cocktail (Catalog #20-113): 75 mM MgCl2 and 500 μM ATP in 20 mM MOPS, pH 7.2, 25 mM β-glycerol phosphate, 5 mM EGTA, 1 mM sodium orthovanadate, 1 mM dithiothreitol.
7. [γ-^32P]ATP: Stock 1 mCi/100 μl (3000 Ci/mmol, obtained from Perkin Elmer, Catalog #BLU002A). Make 10 μl aliquots (100 μCi/vial). Before starting the assay, dilute the Magnesium/ATP Cocktail 1:1 with sterile, distilled water. Then dilute an aliquot of [γ-^32P]ATP to 1 μCi/μl with 90 μl of the diluted Magnesium/ATP Cocktail. […]
• 1. Add 1 μl of ADBI to a microcentrifuge tube. • 2. Add 5 μl of Magnesium/ATP cocktail. • 3. Add 5 μl of MEK1, active (2.5-25 ng) • 4. Add 4 μl (1 μg) of unactive MAP Kinase 2/Erk 2. • 5. Incubate at 30° C. for 30 minutes. • 6. Remove 1 μl of this mixture and add to Stage Two component mixture.
• 1. Add 12.5 μl of ADBI. • 2. Add 2.5 μl of MBP stock solution. • 3. Add 10 μl of diluted [γ-^32P] ATP. • 4. Incubate for at 30° C. 10 minutes. • 5. Transfer a 20 μl aliquot onto the center of a 2 cm×2 cm P81 paper square. • 6. Wash the paper squares three times with 0.75% phosphoric acid for 5 minutes per wash. • 7. Wash the paper squares once with acetone for five minutes. • 8. Transfer the paper squares to a scintillation vial and add 5 ml scintillation cocktail. • 9. Read in scintillation counter. Compare cpm of enzyme samples to cpm of control samples that contain no enzyme (background control).

The subject of a further assay is cell cycle. The assay can be described thus: Cell cycle arrest. Type of assay: cell-based.
The target of the next assay is Cdk4 (Homo sapiens, UniProt P11802). The assay can be described thus: Cdk4 inhibition. It counts as biochemical.
Chain of Cdk4 (P11802 whole entry, species assumed): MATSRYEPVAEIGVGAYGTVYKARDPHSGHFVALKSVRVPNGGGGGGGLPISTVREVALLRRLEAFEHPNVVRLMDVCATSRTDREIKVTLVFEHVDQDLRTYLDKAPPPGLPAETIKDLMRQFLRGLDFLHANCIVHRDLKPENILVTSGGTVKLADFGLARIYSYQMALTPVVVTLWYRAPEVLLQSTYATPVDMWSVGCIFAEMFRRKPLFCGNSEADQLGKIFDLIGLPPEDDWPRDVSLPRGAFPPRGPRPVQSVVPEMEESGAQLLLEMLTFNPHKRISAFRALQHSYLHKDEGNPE
Chain of Cdk4 (P24385 whole entry partner, species assumed): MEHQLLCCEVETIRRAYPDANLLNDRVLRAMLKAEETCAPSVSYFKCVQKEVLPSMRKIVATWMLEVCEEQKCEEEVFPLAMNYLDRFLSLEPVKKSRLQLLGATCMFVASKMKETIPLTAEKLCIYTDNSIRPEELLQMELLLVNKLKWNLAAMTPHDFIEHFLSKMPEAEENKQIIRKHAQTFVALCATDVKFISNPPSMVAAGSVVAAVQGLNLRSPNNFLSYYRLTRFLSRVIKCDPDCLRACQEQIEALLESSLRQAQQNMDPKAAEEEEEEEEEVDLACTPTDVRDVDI
From the text: as §2, §3

Where [1] appears, read: kinase panel, 10 μM ATP, read-out: MAPK 1 / MEK1 IC50.
Setting [2] is: read-out: MAP2K1 Inhibition (IC50).

Structures can show the parent of a compound that is named as a salt. Where two headings read alike, the source gives them in different places. Where only a bound is given, the exact number is not on record here.

T1 sequence (Q02750 whole entry, species assumed): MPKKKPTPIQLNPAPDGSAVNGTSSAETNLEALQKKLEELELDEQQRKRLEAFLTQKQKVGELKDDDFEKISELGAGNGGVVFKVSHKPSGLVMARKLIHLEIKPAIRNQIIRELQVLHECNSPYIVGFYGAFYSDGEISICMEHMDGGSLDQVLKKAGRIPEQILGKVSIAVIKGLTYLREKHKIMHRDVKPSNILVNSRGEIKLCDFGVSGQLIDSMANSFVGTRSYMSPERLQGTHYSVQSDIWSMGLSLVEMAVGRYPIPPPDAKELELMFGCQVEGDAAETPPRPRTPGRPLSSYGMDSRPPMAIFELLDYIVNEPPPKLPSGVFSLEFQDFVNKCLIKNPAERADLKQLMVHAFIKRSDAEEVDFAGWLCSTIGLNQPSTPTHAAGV
Chain of Cdk6 (Q00534 whole entry): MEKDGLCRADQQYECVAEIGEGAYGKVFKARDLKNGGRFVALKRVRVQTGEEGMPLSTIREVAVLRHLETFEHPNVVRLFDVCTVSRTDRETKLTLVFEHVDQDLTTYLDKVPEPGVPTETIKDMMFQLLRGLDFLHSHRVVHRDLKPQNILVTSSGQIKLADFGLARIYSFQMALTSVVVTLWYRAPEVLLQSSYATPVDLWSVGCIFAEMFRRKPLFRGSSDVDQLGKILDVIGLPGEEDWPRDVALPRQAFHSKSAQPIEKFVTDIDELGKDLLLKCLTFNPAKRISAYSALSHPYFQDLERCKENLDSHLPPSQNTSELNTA
Chain of Cdk6 (P30279 whole entry partner): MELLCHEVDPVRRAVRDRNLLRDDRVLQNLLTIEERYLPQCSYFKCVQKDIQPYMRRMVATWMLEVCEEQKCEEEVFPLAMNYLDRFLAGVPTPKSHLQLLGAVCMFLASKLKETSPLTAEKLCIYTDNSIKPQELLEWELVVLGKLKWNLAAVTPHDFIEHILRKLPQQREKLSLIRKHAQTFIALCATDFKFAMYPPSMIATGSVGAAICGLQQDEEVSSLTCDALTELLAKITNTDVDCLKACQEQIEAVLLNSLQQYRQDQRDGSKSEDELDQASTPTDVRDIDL

For the compound `CC(C)N1CCN(C(=O)COc2ccc(-c3n[nH]c4c3C(=O)c3c(NC(=O)NN5CCOCC5)cccc3-4)cc2)CC1` [Compound A37], the IC50 in the assay on 1A9 was 13.3 nM; against Cdk2, less than 50 nM; against Cdk6 it was less than 100 nM; against Cdk1, less than 50 nM; with A129, 5.7 nM; at MEK1 (setting [1]), 10 to 100 nM. Moreover, the IC50 at MEK1 (setting [2]) and at Cdk4 was less than 50 nM throughout. In addition, the PARP cleavage result with cells is on record as “observed”. In the assay on cells, the TUNEL positive cells result is recorded as “about 60%”. The cell cycle arrest result in the assay on cell cycle is reported as “predominantly G1 arrest”.

`COCCN1CCN(Cc2ccc(-c3n[nH]c4c3C(=O)c3c(NC(=O)NN5CCOCC5)cccc3-4)cc2)CC1` [Compound B16, N-[3-(4-{[4-(2-methoxyethyl)piperazinyl]methyl}phenyl)-4-oxoindeno[2,3-d]pyrazol-5-yl](morpholin-4-ylamino)carboxamide dihydrochloride]: the IC50 in the assay with 1A9 was 10.7 nM; against Cdk2, less than 5 nM; at Cdk6 it was less than 50 nM; at Cdk1, less than 5 nM; in the assay on A129 it was 8.7 nM; at MEK1 (setting [1]) it was less than 100 nM. The IC50 on MEK1 (setting [2]) was less than 100 nM; against Cdk4 it was greater than 100 nM. Moreover, in the assay on cells, the TUNEL positive cells is 90%. In addition, the cell cycle arrest entry in the assay on cell cycle is “predominantly G1 arrest”.
